Reference: US9024041B2, “P38 MAP kinase inhibitors” (Respivert Ltd., priority 2010, dated 2015)
pEC50, pIC50: −log10 of the molar value. Marks after values point to notes of the source that are not given here. Each block holds one compound with its values, some of them ahead of it.

Tests used:
[1] = system: LPS-induced TNFα release in THP-1 cells; assay: LPS-induced TNFα release in THP-1 cells; assay type: cell-based; settings: Homo sapiens, 3 μg/mL LPS, 4 hr
Method in brief: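 Human monocytic cells were stimulated with 3 μg/mL E. coli LPS for 4 hr. Supernatant TNFα was measured by sandwich ELISA. Inhibition was taken relative to vehicle control, and IC50 derived from the concentration-response curve.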

[2] = system: LPS-induced TNFα release in d-U937 cells; assay: LPS-induced TNFα release in d-U937 cells; assay type: cell-based; settings: Homo sapiens, dU937, 4 h; read-out: LPS/TNFα REC50 d-U937
Method in brief: (§1)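 U937 cells differentiated with PMA (100 ng/mL, 48–72 hr), pre-incubated with compound 2 hr, then stimulated with 0.1 μg/mL E. coli O111:B4 LPS for 4 hr. Supernatant TNFα and IL-8 measured by sandwich ELISA; REC50 (TNFα) and IC50 (IL-8 inhibition vs vehicle) taken from concentration-response curves.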

[3] = target: T1, p38 MAPKα isoform (MAPK14: Invitrogen) (Homo sapiens, UniProt Q16539); assay: p38 MAPKα enzyme inhibition assay (FRET, Z-LYTE, via MAPKAP-K2 activation); assay type: biochemical; settings: 2 hr pre-incubation, ATP 10.0 μM; read-out: Enzyme Inhibition IC50 p38α
T1 construct: purchased Invitrogen
T1 sequence (Q16539 whole entry, canonical isoform): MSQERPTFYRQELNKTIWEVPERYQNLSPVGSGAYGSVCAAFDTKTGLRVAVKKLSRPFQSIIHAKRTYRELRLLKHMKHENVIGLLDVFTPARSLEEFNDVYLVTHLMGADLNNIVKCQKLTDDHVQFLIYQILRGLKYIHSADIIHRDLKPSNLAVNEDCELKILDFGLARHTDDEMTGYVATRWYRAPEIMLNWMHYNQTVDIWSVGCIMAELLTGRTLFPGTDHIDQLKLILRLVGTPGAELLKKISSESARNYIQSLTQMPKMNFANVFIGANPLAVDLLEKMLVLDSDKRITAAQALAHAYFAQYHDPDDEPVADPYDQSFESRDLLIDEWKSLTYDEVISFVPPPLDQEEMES
Description: The enzyme inhibitory activities of compounds disclosed herein were determined by fluorescence resonance energy transfer (FRET) using synthetic peptides labelled with both donor and acceptor fluorophores (Z-LYTE, Invitrogen Ltd., Paisley, UK). Recombinant, phosphorylated p38 MAPKγ (MAPK12:Invitrogen) was diluted in HEPES buffer, mixed with the test compound at the desired final concentrations and incubated for 2 hr at RT. The FRET peptide (2 μM) and ATP (100 μM) were added to the enzyme/compound mixture and incubated for 1 hr. Development reagent (protease) was added for 1 hr prior to detection in a fluorescence microplate reader (Varioskan® Flash, ThermoFisher Scientific). The site-specific protease cleaves non-phosphorylated peptide only and eliminates the FRET signal. Phosphorylation levels of each reaction were calculated using the ratio of coumarin emission (donor) over fluorescein emission (acceptor) for which high ratios indicate high phosphorylation and low ratios indicate low phosphorylation levels.
For the p38 MAPKα isoform (MAPK14: Invitrogen), enzyme activity was evaluated indirectly by determining the level of activation/phosphorylation of the down-stream molecule, MAPKAP-K2. The p38 MAPKα protein was mixed with the test compound for 2 hr at RT. […] Development reagent was then added and the mixture incubated for 1 hr before detection by fluorescence completed the assay protocol.

[4] = target: T2, Recombinant, phosphorylated p38 MAPKγ (MAPK12:Invitrogen) (Homo sapiens, UniProt P53778); assay: p38 MAPKγ enzyme inhibition assay (FRET, Z-LYTE); assay type: biochemical; settings: 2 hr pre-incubation, ATP 100 μM; read-out: Enzyme Inhibition IC50 p38γ
T2 construct: purchased Invitrogen
T2 sequence (P53778 1-367): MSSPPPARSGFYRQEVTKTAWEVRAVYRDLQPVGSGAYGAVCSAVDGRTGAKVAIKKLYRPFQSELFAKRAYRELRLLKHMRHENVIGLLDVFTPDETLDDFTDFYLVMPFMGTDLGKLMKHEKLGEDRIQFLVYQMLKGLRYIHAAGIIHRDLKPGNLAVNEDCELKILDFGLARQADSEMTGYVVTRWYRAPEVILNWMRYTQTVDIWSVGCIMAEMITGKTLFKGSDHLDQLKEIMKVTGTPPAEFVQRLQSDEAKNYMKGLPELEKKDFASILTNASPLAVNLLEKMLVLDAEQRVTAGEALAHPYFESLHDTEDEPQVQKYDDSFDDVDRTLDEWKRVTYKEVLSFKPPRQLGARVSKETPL

[5] = system: Differentiated U937 cells; assay: MTT assay: cell viability on exposure to test compounds; assay type: cell-based, human; settings: percentage loss of cell viability vs vehicle; for MTT Assay (Viability) 4 h d-U937: 5% FCS; for MTT Assay (Viability) 24 h d-U937: 10% FCS
Method in brief: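 Differentiated U937 cells were pre-incubated with compound for either 4 h in 5% FCS or 24 h in 10% FCS, then given MTT for 1 h. Formazan was dissolved in DMSO and read at 550 nm. Viability loss is expressed as % versus 0.5% DMSO vehicle, so an apparent gain appears as a negative value.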

[6] = system: Poly I:C-induced ICAM-1 expression in BEAS2B cells; assay: Poly I:C-induced ICAM-1 induction in BEAS2B cells; assay type: cell-based; settings: Homo sapiens, BEAS-2B, poly I:C 1 μg/mL, 18 hr, read-out: PolyI:C/ICAM1 IC50 BEAS2B
Method in brief: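 Human bronchial epithelial BEAS2B cells were pre-incubated with compound for 2 h, then transfected with poly I:C at 1 μg/mL. Surface ICAM-1 was measured 18 h later by cell-based ELISA (OD450–655), normalised to crystal-violet cell number (OD595). IC50 was taken from the concentration–response curve against vehicle.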

[7] = system: LPS-induced IL-8 release in d-U937 cells; assay: LPS-induced IL-8 release in d-U937 cells; assay type: cell-based; settings: Homo sapiens, dU937, 0.1 μg/mL LPS, 4 hr
Method in brief: as §1

Structure (SMILES): CNC(=O)Nc1cc(COc2ccc(NC(=O)Nc3cc(C(C)(C)C)nn3-c3ccc(OC)nc3)c(C)c2C)ccn1 [Example 63, 1-(4-((4-(3-(3-tert-butyl-1-(6-methoxypyridin-3-yl)-1H-pyrazol-5-yl)ureido)-2,3-dimethylphenoxy)methyl)pyridin-2-yl)-3-methylurea]
pIC50 [1]: 7.55
pEC50 [2]: 7.58
pIC50 [3]: 7.79
pIC50 [4]: < 4.76
MTT Assay (Viability) 4 h d-U937 ([5]; 1 μg/mL): 32.5%
MTT Assay (Viability) 24 h d-U937 ([5]; 1 μg/mL): 21.2%
pIC50 [6]: 6.75
pIC50 [7]: 6.90

Structure (SMILES): COCC(=O)Nc1cc(Cc2ccc(NC(=O)Nc3cc(C(C)(C)C)nn3-c3ccc(C)cc3)c3ccccc23)ccn1 [Example 64, N-(4-((4-(3-(3-tert-butyl-1-(p-tolyl)-1H-pyrazol-5-yl)ureido)naphthalen-1-yl)methyl)pyridin-2-yl)-2-methoxyacetamide]
pIC50 [1]: 7.96
pEC50 [2]: 8.68
pIC50 [3]: 7.77
pIC50 [4]: 5.78
MTT Assay (Viability) 4 h d-U937 ([5]; 10 μg/mL): −3.7^b %
MTT Assay (Viability) 24 h d-U937 ([5]; 10 μg/mL): 61.6^b %
pIC50 [6]: 7.70
pIC50 [7]: 8.13

Structure (SMILES): COCC(=O)Nc1cc(COc2ccc(NC(=O)Nc3cc(C(C)(C)C)nn3-c3ccc(OC)cc3)c(C)c2C)ccn1 [Example 59, N-(4-((4-(3-(3-tert-butyl-1-(4-methoxyphenyl)-1H-pyrazol-5-yl)ureido)-2,3-dimethylphenoxy)methyl)pyridin-2-yl)-2-methoxy acetamide]
pIC50 [1]: 6.62
pEC50 [2]: 6.98
pIC50 [3]: 7.90
pIC50 [4]: 5.38
MTT Assay (Viability) 4 h d-U937 ([5]; 1 μg/mL): 11.3%
MTT Assay (Viability) 24 h d-U937 ([5]; 1 μg/mL): 0.9%
pIC50 [6]: 6.56
pIC50 [7]: 6.78

Structure (SMILES): COCC(=O)Nc1cc(Oc2ccc(NC(=O)Nc3cc(C(F)(F)F)nn3-c3ccc(C)cc3)c3ccccc23)ccn1 [Example 29, 2-methoxy-N-(4-(4-(3-(1-p-tolyl-3-(trifluoromethyl)-1H-pyrazol-5-yl)ureido)naphthalen-1-yloxy)pyridin-2-yl)acetamide]
pIC50 [1]: 6.86
pEC50 [2]: 5.48
pIC50 [3]: 8.11
pIC50 [4]: 4.84
MTT Assay (Viability) 4 h d-U937 ([5]; 1 μg/mL): 0.8%
MTT Assay (Viability) 24 h d-U937 ([5]; 1 μg/mL): −5.7%
pIC50 [6]: 6.38
pIC50 [7]: < 5.77

Structure (SMILES): COCC(=O)Nc1cc(Oc2ccc(NC(=O)Nc3cc(C45CC6CC(CC(C6)C4)C5)nn3-c3ccc(C)cc3)c3ccccc23)ccn1 [Example 27, N-(4-(4-(3-(3-(adamantan-1-yl)-1-p-tolyl-1H-pyrazol-5-yl)ureido)naphthalen-1-yloxy)pyridin-2-yl)-2-methoxyacetamide]
pIC50 [1]: 7.82
pEC50 [2]: 7.73
pIC50 [3]: 7.13
pIC50 [4]: 5.71
MTT Assay (Viability) 4 h d-U937 ([5]; 1 μg/mL): −4.6%
MTT Assay (Viability) 24 h d-U937 ([5]; 1 μg/mL): −23.9%
pIC50 [6]: 6.55
pIC50 [7]: 5.45

Structure (SMILES): COCC(=O)Nc1cc(COc2ccc(NC(=O)Nc3cc(C(C)(C)C)nn3-c3ccc(C)cc3)c(C)c2C)ccn1 [Example 58, N-(4-((4-(3-(3-tert-butyl-1-(p-tolyl)-1H-pyrazol-5-yl)ureido)-2,3-dimethylphenoxy)methyl)pyridin-2-yl)-2-methoxyacetamide]
pIC50 [1]: 6.41
pEC50 [2]: 7.98
pIC50 [3]: 7.97
pIC50 [4]: 6.48
MTT Assay (Viability) 4 h d-U937 ([5]; 1 μg/mL): −2.8%
MTT Assay (Viability) 24 h d-U937 ([5]; 1 μg/mL): 12.0%
pIC50 [6]: 6.32
pIC50 [7]: 7.34

Compounds with a higher pIC50 [1], results first:

pIC50 [1]: 8.80
pEC50 [2]: 9.52
pIC50 [3]: > 9.70
pIC50 [4]: 6.61
pIC50 [7]: 7.76
Structure (SMILES): COCC(=O)Nc1cc(Oc2ccc(NC(=O)Nc3cc(C(C)(C)C)nn3-c3ccc(C)nc3)c3ccccc23)ccn1 [Example 57, N-(4-(4-(3-(3-tert-butyl-1-(6-methylpyridin-3-yl)-1H-pyrazol-5-yl)ureido)naphthalen-1-yloxy)pyridin-2-yl)-2-methoxyacetamide]
MTT Assay (Viability) 4 h d-U937 ([5]; 1 μg/mL): −3.4%
MTT Assay (Viability) 24 h d-U937 ([5]; 1 μg/mL): 76.0%
pIC50 [6]: 8.07

pIC50 [1]: 8.92
pEC50 [2]: 9.15
pIC50 [3]: 8.06
pIC50 [4]: 7.02
pIC50 [7]: 7.40
Structure (SMILES): COCC(=O)Nc1cc(Oc2ccc(NC(=O)Nc3cc(C(C)(C)C)nn3-c3cc(C)cs3)c3ccccc23)ccn1 [Example 18, N-(4-(4-(3-(3-tert-Butyl-1-(4-methylthiophen-2-yl)-1H-pyrazol-5-yl)ureido)naphthalen-1-yloxy)pyridin-2-yl)-2-methoxyacetamide]
MTT Assay (Viability) 4 h d-U937 ([5]; 1 μg/mL): 8.2%
MTT Assay (Viability) 24 h d-U937 ([5]; 1 μg/mL): −2.9%
pIC50 [6]: 8.43

pIC50 [1]: 8.49
pEC50 [2]: 9.22
pIC50 [3]: 7.77
pIC50 [4]: 6.40
pIC50 [7]: 8.14
Structure (SMILES): CSc1ccc(-n2nc(C(C)(C)C)cc2NC(=O)Nc2ccc(Oc3ccnc(NC(=O)N4CCCC4)c3)c3ccccc23)cc1 [Example 14, N-(4-(4-(3-(3-tert-Butyl-1-(4-(methylthio)phenyl)-1H-pyrazol-5-yl)ureido)naphthalen-1-yloxy)pyridin-2-yl)pyrrolidine-1-carboxamide]
MTT Assay (Viability) 4 h d-U937 ([5]; 1 μg/mL): −0.4%
MTT Assay (Viability) 24 h d-U937 ([5]; 1 μg/mL): −50.0%
pIC50 [6]: 8.72

pIC50 [1]: 9.00
pEC50 [2]: 9.22
pIC50 [3]: 9.05
pIC50 [4]: 7.14
pIC50 [7]: 9.00
Structure (SMILES): COCC(=O)Nc1cc(Oc2ccc(NC(=O)Nc3cc(C(C)(C)C)nn3-c3ccc(N)cc3)c3ccccc23)ccn1 [Example 1, N-(4-(4-(3-(1-(4-Aminophenyl)-3-tert-butyl-1H-pyrazol-5-yl)ureido)naphthalen-1-yloxy)pyridin-2-yl)-2-methoxyacetamide]
MTT Assay (Viability) 4 h d-U937 ([5]; 1 μg/mL): −26.6%
MTT Assay (Viability) 24 h d-U937 ([5]; 1 μg/mL): 78.0%
pIC50 [6]: 8.08

pIC50 [1]: 8.80
pEC50 [2]: 9.22
pIC50 [3]: 7.78
pIC50 [4]: 6.64
pIC50 [7]: 8.92
Structure (SMILES): COc1ccc(-n2nc(C(C)(C)C)cc2NC(=O)Nc2ccc(Oc3ccnc(NC(=O)N4CCCC4)c3)c3ccccc23)cc1 [Example 8, N-(4-(4-(3-(3-tert-Butyl-1-(4-methoxyphenyl)-1H-pyrazol-5-yl)ureido)naphthalen-1-yloxy)pyridin-2-yl)pyrrolidine-1-carboxamide]
MTT Assay (Viability) 4 h d-U937 ([5]; 1 μg/mL): −20.1%
MTT Assay (Viability) 24 h d-U937 ([5]; 1 μg/mL): −77.9%
pIC50 [6]: 8.85

pIC50 [1]: 9.05
pEC50 [2]: 9.70
pIC50 [3]: 8.44
pIC50 [4]: 6.85
pIC50 [7]: 9.22
Structure (SMILES): COCC(=O)Nc1cc(Oc2ccc(NC(=O)Nc3cc(C4(C)CCOCC4)nn3-c3ccc(C)cc3)c3ccccc23)ccn1 [Example 20, 2-Methoxy-N-(4-(4-(3-(3-(4-methyltetrahydro-2H-pyran-4-yl)-1-p-tolyl-1H-pyrazol-5-yl)ureido)naphthalen-1-yloxy)pyridin-2-yl)acetamide]
MTT Assay (Viability) 4 h d-U937 ([5]; 1 μg/mL): −32.6%
MTT Assay (Viability) 24 h d-U937 ([5]; 1 μg/mL): −9.0%
pIC50 [6]: 8.36

pIC50 [1]: 8.80
pEC50 [2]: 8.82
pIC50 [3]: 8.33
pIC50 [4]: 6.98
pIC50 [7]: 8.64
Structure (SMILES): COc1ccc(-n2nc(C(C)(C)C)cc2NC(=O)Nc2ccc(Oc3ccnc(NC(=O)N4CCN(C)CC4)c3)c3ccccc23)cc1 [Example 10, N-(4-(4-(3-(3-tert-Butyl-1-(4-methoxyphenyl)-1H-pyrazol-5-yl)ureido)naphthalen-1-yloxy)pyridin-2-yl)-4-methyl piperazine-1-carboxamide]
MTT Assay (Viability) 4 h d-U937 ([5]; 1 μg/mL): −12.5%
MTT Assay (Viability) 24 h d-U937 ([5]; 1 μg/mL): −21.2%
pIC50 [6]: 8.46

pIC50 [1]: 8.89
pEC50 [2]: 9.70
pIC50 [3]: 8.04
pIC50 [4]: 6.70
pIC50 [7]: 8.57
Structure (SMILES): COCC(=O)Nc1cc(Oc2ccc(NC(=O)Nc3cc(C(C)(C)C)nn3-c3ccc(OC)c(Cl)c3)c3ccccc23)ccn1 [Example 54, N-(4-(4-(3-(3-tert-butyl-1-(3-chloro-4-methoxyphenyl)-1H-pyrazol-5-yl)ureido)naphthalen-1-yloxy)pyridin-2-yl)-2-methoxyacetamide]
MTT Assay (Viability) 4 h d-U937 ([5]; 1 μg/mL): 0.1%
MTT Assay (Viability) 24 h d-U937 ([5]; 1 μg/mL): −7.5%
pIC50 [6]: 9.15
